Where two headings read alike, the source gives them in different places.
How the values were obtained:
Type in all cases: cell-based
hGIPR = target: T1, hGIPR (Homo sapiens, UniProt P48546); experiment: Functional cAMP formation (HTRF) in HEK-293 clonal cells expressing hGIPR, 0.1% bovine casein, without or with 1.0% human serum albumin; settings: for EC50: cAMP
T1 construct: expressed in transfected cells
T1 sequence (P48546 22-466): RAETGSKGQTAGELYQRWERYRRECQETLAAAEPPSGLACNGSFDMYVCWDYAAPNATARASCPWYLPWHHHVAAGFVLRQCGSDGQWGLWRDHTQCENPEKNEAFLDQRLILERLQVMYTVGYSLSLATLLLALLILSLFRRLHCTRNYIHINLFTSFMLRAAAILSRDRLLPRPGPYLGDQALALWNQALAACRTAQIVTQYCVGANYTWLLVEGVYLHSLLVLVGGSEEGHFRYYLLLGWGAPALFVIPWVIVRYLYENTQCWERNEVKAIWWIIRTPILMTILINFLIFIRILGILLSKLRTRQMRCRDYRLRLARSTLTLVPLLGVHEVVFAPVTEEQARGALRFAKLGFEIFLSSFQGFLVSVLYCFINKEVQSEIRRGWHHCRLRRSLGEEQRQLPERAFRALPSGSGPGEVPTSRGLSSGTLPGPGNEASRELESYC
In short: (§1)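 Cells were stimulated with peptide for 30 min at 37° C, then lysed in buffer carrying cAMP-d2 and anti-cAMP Eu3+-cryptate for a competitive HTRF read after at least 60 min at room temperature. The 665/620 nm ratio was converted to nM cAMP against a standard curve.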

hGCGR = target: T2, hGCGR (Homo sapiens, UniProt P47871); experiment: Functional cAMP formation (HTRF) in HEK-293 clonal cells expressing hGCGR, 0.1% bovine casein, without or with 1.0% human serum albumin; settings: cAMP
T2 construct: expressed in transfected cells
T2 sequence (P47871 26-477): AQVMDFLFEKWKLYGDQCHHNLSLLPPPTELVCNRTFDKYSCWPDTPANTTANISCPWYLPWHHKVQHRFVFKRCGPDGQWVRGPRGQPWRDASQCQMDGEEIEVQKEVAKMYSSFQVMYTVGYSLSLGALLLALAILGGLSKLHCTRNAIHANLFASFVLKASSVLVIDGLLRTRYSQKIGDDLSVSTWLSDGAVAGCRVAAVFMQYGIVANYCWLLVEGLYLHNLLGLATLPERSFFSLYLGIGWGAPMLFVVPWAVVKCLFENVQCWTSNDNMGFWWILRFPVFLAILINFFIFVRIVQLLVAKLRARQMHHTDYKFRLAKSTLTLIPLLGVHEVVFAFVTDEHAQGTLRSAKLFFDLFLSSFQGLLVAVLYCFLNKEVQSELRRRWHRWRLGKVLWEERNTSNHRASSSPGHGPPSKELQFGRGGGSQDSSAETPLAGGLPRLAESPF
In short: as §1

hGLP-1R = hGLP-1R (Homo sapiens, UniProt P43220); experiment: Functional cAMP formation (HTRF) in HEK-293 clonal cells expressing hGLP-1R, 0.1% bovine casein, without or with 1.0% human serum albumin; design: expressed in transfected cells; settings: for Emax: percent of maximal response to GLP-1(7-36)NH2; for EC50: cAMP
Sequence of hGLP-1R (P43220 24-463): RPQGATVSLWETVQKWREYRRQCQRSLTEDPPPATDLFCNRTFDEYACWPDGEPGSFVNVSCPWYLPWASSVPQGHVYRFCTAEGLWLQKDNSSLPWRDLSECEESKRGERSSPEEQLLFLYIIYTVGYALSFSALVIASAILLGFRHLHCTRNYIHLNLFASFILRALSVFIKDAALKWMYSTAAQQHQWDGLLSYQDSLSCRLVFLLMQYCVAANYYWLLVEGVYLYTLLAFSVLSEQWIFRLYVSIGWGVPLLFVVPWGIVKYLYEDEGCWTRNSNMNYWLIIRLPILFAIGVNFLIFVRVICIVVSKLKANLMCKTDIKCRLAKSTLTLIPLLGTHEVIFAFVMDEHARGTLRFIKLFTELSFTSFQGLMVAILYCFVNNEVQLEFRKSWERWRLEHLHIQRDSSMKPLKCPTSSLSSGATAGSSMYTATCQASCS
In short: as §1

[1] = HEK293, cAMP, 37° C., 0.1% bovine casein and 1.0% human serum albumin, percent of maximal response to GIP(1-42)NH2, read-out: hGIPR Emax, % ± SEM
[2] = 37° C., 0.1% bovine casein (no human serum albumin), geometric mean, read-out: hGIPR EC50, nM (SEM, n)
[3] = 37° C., 0.1% bovine casein (no human serum albumin), geometric mean, read-out: hGCGR EC50, nM (SEM, n)
[4] = 37° C., 0.1% bovine casein and 1.0% human serum albumin, geometric mean (SEM, n), read-out: hGCGR EC50, nM (SEM, n)
[5] = HEK293, cAMP, 37° C., 0.1% bovine casein, arithmetic mean, read-out: hGLP-1R Emax, % ± SEM
[6] = 37° C., 0.1% bovine casein (no human serum albumin), geometric mean, read-out: hGLP-1R EC50, nM (SEM, n)

CC[C@H](C)[C@H](NC(=O)[C@H](CC(C)C)NC(=O)[C@](C)(Cc1ccc(O)cc1)NC(=O)[C@H](CCCCNC(=O)COCCOCCNC(=O)COCCOCCNC(=O)CC[C@H](NC(=O)CCCCCCCCCOc1ccc(C(=O)O)cc1)C(=O)O)NC(=O)[C@@H](NC(=O)[C@H](Cc1ccccc1)NC(=O)[C@H](CCC(=O)O)NC(=O)C(C)(C)NC(=O)[C@H](CCC(N)=O)NC(=O)[C@H](C)NC(=O)[C@H](CCC(N)=O)NC(=O)[C@H](CCCN)NC(=O)[C@H](CC(=O)O)NC(=O)[C@H](CC(C)C)NC(=O)[C@](C)(CC(C)C)NC(=O)[C@@H](NC(=O)C(C)(C)NC(=O)[C@H](Cc1ccc(O)cc1)NC(=O)[C@H](CC(=O)O)NC(=O)[C@H](CO)NC(=O)[C@@H](NC(=O)[C@](C)(Cc1ccccc1F)NC(=O)[C@@H](NC(=O)CNC(=O)[C@H](CCC(=O)O)NC(=O)C(C)(C)NC(=O)[C@@H](N)Cc1ccc(O)cc1)[C@@H](C)O)[C@@H](C)O)[C@@H](C)CC)[C@@H](C)CC)C(=O)N[C@@H](CCCCNC(=O)COCCOCCNC(=O)COCCOCCNC(=O)CC[C@H](NC(=O)CCCCCCCCCOc1ccc(C(=O)O)cc1)C(=O)O)C(=O)NCC(=O)NCC(=O)N1CCC[C@H]1C(=O)N[C@@H](CO)C(=O)N[C@@H](CO)C(=O)NCC(=O)N[C@@H](C)C(=O)N1CCC[C@H]1C(=O)N1CCC[C@H]1C(=O)N1CCC[C@H]1C(=O)N[C@@H](CO)C(N)=O [Example 402]
Emax (hGIPR; HEK293, read-out: hGIPR Emax, % ± SEM, cAMP, 37° C., 0.1% bovine casein and 1.0% human serum albumin, percent of maximal response to GIP(1-42)NH2): 84.5% | Emax (hGIPR; HEK293, read-out: hGIPR Emax, % ± SEM, cAMP, 37° C., 0.1% bovine casein, percent of maximal response to GIP(1-42)NH2, arithmetic mean): 98.9% | EC50 (hGIPR; hGIPR EC50, nM (SEM, n), 37° C., 0.1% bovine casein (no human serum albumin), geometric mean): 0.0132 nM | EC50 (hGIPR; hGIPR EC50, nM (SEM, n), 37° C., 0.1% bovine casein and 1.0% human serum albumin, geometric mean (SEM, n)): 1.11 nM | EC50 (hGCGR; hGCGR EC50, nM (SEM, n), 37° C., 0.1% bovine casein (no human serum albumin), geometric mean): > 9950 nM | EC50 (hGCGR; hGCGR EC50, nM (SEM, n), 37° C., 0.1% bovine casein and 1.0% human serum albumin, geometric mean (SEM, n)): > 9950 nM | Emax (hGLP-1R; HEK293, read-out: hGLP-1R Emax, % ± SEM, cAMP, 37° C., 0.1% bovine casein and 1.0% human serum albumin): 110% | EC50 (hGLP-1R; hGLP-1R EC50, nM (SEM, n), 37° C., 0.1% bovine casein (no human serum albumin), geometric mean): 0.221 nM | EC50 (hGLP-1R; hGLP-1R EC50, nM (SEM, n), 37° C., 0.1% bovine casein and 1.0% human serum albumin, geometric mean (SEM, n)): 13.5 nM

CC[C@H](C)[C@H](NC(=O)[C@H](CC(C)C)NC(=O)[C@](C)(Cc1ccc(O)cc1)NC(=O)[C@H](CCCCNC(=O)COCCOCCNC(=O)COCCOCCNC(=O)CC[C@H](NC(=O)CCCCCCCCCCCCC(=O)O)C(=O)O)NC(=O)[C@@H](NC(=O)[C@](C)(Cc1ccccc1)NC(=O)[C@H](CCC(=O)O)NC(=O)C(C)(C)NC(=O)[C@H](CCC(N)=O)NC(=O)[C@H](C)NC(=O)[C@H](CCCCNC(=O)COCCOCCNC(=O)COCCOCCNC(=O)CC[C@H](NC(=O)CCCCCCCCCCCCC(=O)O)C(=O)O)NC(=O)[C@H](CCCN)NC(=O)[C@H](CC(=O)O)NC(=O)[C@H](CC(C)C)NC(=O)[C@](C)(CC(C)C)NC(=O)[C@@H](NC(=O)[C@H](CO)NC(=O)[C@@H](NC(=O)[C@H](CC(=O)O)NC(=O)[C@H](CO)NC(=O)[C@@H](NC(=O)[C@](C)(Cc1ccccc1F)NC(=O)[C@@H](NC(=O)CNC(=O)[C@H](CCC(=O)O)NC(=O)C(C)(C)NC(=O)[C@@H](N)Cc1ccc(O)cc1)[C@@H](C)O)[C@@H](C)O)C(C)C)[C@@H](C)CC)[C@@H](C)CC)C(=O)N[C@@H](CCC(=O)O)C(=O)NCC(=O)NCC(=O)N1CCC[C@H]1C(=O)N[C@@H](CO)C(=O)N[C@@H](CO)C(=O)NCC(=O)N[C@@H](C)C(=O)N1CCC[C@H]1C(=O)N1CCC[C@H]1C(=O)N1CCC[C@H]1C(=O)N[C@@H](CO)C(N)=O [Example 118]
Emax (hGIPR; HEK293, read-out: hGIPR Emax, % ± SEM, percent of maximal response to GIP(1-42)NH2, 37° C., 0.1% bovine casein, arithmetic mean): 94.7% | EC50 (hGIPR; hGIPR EC50, nM (SEM, n), incubated at 37° C., 0.1% bovine casein (no human serum albumin), geometric mean): 0.0547 nM | EC50 (hGCGR; hGCGR EC50, nM (SEM, n), incubated at 37° C., 0.1% bovine casein (no human serum albumin), geometric mean): > 9950 nM | EC50 (hGLP-1R; hGLP-1R EC50, nM (SEM, n), incubated at 37° C., 0.1% bovine casein (no human serum albumin), geometric mean): 0.437 nM

CC[C@H](C)[C@H](NC(=O)[C@H](CC(C)C)NC(=O)[C@](C)(Cc1ccc(O)cc1)NC(=O)[C@H](CCCCNC(=O)COCCOCCNC(=O)COCCOCCNC(=O)[C@H]1CC[C@H](CNC(=O)CC[C@H](NC(=O)CCCCCCCCCCCCC(=O)O)C(=O)O)CC1)NC(=O)[C@@H](NC(=O)[C@H](Cc1ccccc1)NC(=O)[C@H](CCCN)NC(=O)C(C)(C)NC(=O)[C@H](CCC(N)=O)NC(=O)[C@H](C)NC(=O)[C@H](CCC(N)=O)NC(=O)[C@H](CCCN)NC(=O)[C@H](CC(=O)O)NC(=O)[C@H](CC(C)C)NC(=O)[C@](C)(CC(C)C)NC(=O)[C@@H](NC(=O)C(C)(C)NC(=O)[C@H](Cc1ccncc1)NC(=O)[C@H](CC(=O)O)NC(=O)[C@H](CO)NC(=O)[C@@H](NC(=O)[C@](C)(Cc1ccccc1F)NC(=O)[C@@H](NC(=O)CNC(=O)[C@H](CCC(=O)O)NC(=O)C(C)(C)NC(=O)[C@@H](N)Cc1ccc(O)cc1)[C@@H](C)O)[C@@H](C)O)[C@@H](C)CC)[C@@H](C)CC)C(=O)N[C@@H](CCCCNC(=O)COCCOCCNC(=O)COCCOCCNC(=O)[C@H]1CC[C@H](CNC(=O)CC[C@H](NC(=O)CCCCCCCCCCCCC(=O)O)C(=O)O)CC1)C(=O)NCC(=O)NCC(=O)N1CCC[C@H]1C(=O)N[C@@H](CO)C(=O)N[C@@H](CO)C(=O)NCC(=O)N[C@@H](C)C(=O)N1CCC[C@H]1C(=O)N1CCC[C@H]1C(=O)N1CCC[C@H]1C(=O)N[C@@H](CO)C(N)=O [Example 470]
Emax (hGIPR; [1]): 93.9% | EC50 (hGIPR; [2]): 0.0103 nM | EC50 (hGCGR; [3]): > 9950 nM | EC50 (hGCGR; [4]): > 9950 nM | Emax (hGLP-1R; HEK293, cAMP, 37° C., 0.1% bovine casein and 1.0% human serum albumin, read-out: hGLP-1R Emax, % ± SEM): 113% | Emax (hGLP-1R; [5]): 112% | EC50 (hGLP-1R; [6]): 0.127 nM

CC[C@H](C)[C@H](NC(=O)[C@H](CC(C)C)NC(=O)[C@](C)(Cc1ccc(O)cc1)NC(=O)[C@@H](CCC(=O)O)NC(=O)[C@@H](NC(=O)[C@H](Cc1ccccc1)NC(=O)[C@H](CCCCNC(=O)CCOCCOCCOCCNC(=O)CC[C@H](NC(=O)CCCCCCCCCCCCC(=O)O)C(=O)O)NC(=O)C(C)(C)NC(=O)[C@H](CCC(N)=O)NC(=O)[C@H](C)NC(=O)[C@H](CCCCNC(=O)CCOCCOCCOCCNC(=O)CC[C@H](NC(=O)CCCCCCCCCCCCC(=O)O)C(=O)O)NC(=O)[C@H](CCCN)NC(=O)[C@H](CC(=O)O)NC(=O)[C@H](CC(C)C)NC(=O)[C@](C)(CC(C)C)NC(=O)[C@@H](NC(=O)C(C)(C)NC(=O)[C@H](Cc1ccncc1)NC(=O)[C@H](CC(=O)O)NC(=O)[C@H](CO)NC(=O)[C@@H](NC(=O)[C@](C)(Cc1ccccc1F)NC(=O)[C@@H](NC(=O)CNC(=O)[C@H](CCC(=O)O)NC(=O)C(C)(C)NC(=O)[C@@H](N)Cc1ccc(O)cc1)[C@@H](C)O)[C@@H](C)O)[C@@H](C)CC)[C@@H](C)CC)C(=O)N[C@@H](CCC(=O)O)C(=O)NCC(=O)NCC(=O)N1CCC[C@H]1C(=O)N[C@@H](CO)C(=O)N[C@@H](CO)C(=O)NCC(=O)N[C@@H](C)C(=O)N1CCC[C@H]1C(=O)N1CCC[C@H]1C(=O)N1CCC[C@H]1C(=O)N[C@@H](CO)C(N)=O [Example 404]
Emax (hGIPR; [1]): 77.3% | EC50 (hGIPR; [2]): 0.014 nM | EC50 (hGCGR; [3]): > 9950 nM | EC50 (hGCGR; [4]): > 9950 nM | Emax (hGLP-1R; [5]): 94.3% | EC50 (hGLP-1R; [6]): 0.632 nM

Source: patent US20230265151A1, “GIP/GLP1 CO-AGONIST COMPOUNDS” (priority 2020, published 2023)
